Measured values from patent publication US11684557B2, “Preservation compositions” (Conopco, Inc., priority 2018, dated 2023).

Assays:
[1] = system: Gram negative non-fermenting bacteria; test: Liquid broth assays (MIC and checkerboard), modified ISO 20776-1:2006; assay type: cell-based; details: individual chemical; tryptic soy broth, 30° C., 24 hours, OD600; MIC = <25% growth vs positive growth control
Text: (§1) The differing behaviours of inhibitory antimicrobials in isolation and mixtures have been widely explored using the concept of the Fractional Concentration and Fractional Inhibitory Concentration (FIC). See for instance JRW Lambert and R Lambert, J. Appl. Microbiol 95, 734 (2003); T. Jadavji, C G Prober and R Cheung, Antimicrobial Agents and Chemotherapy 26, 91 (1984), and WO 2004/006876. These parameters can be defined as follows: FC(component a)=Concentration of component a tested in the mixture/MIC(component a tested as a single active) FIC(component a)=MIC(component a tested in the mixture)/MIC(component a tested as a single active)
(§2) These relationships can be expressed mathematically by summing the fractional MIC values for all the components present in the mixture to give the “fractional inhibitory index”: ΣFIC=FIC(component 1)+FIC(component 2)
(§3) Liquid broth assays (MIC and checkerboard) were conducted to identify the minimum concentration(s) of individual and binary combinations of preservation chemicals. A modified methodology to ISO 20776-1:2006 was utilised for the screening as follows. Stock solutions of preservation chemicals and tryptic soy broth were inoculated with 1-5×10^6 microorganisms and incubated at 30° C. for 24 hours, after which optical densities at OD600 nm were measured. Microorganisms used for assessed included Gram negative non-fermenting bacteria: Pseudomonas aeruginosa, Pseudomonas putida & Burkholderia cepacia and Gram negative fermenting bacteria: Enterobacter gergoviae & Klebsiella species. […] Preservation chemicals were screened at a concentration range of 0.0156-2%.

[2] = system: Gram negative fermenting bacteria; test: as above; assay type: cell-based, Enterobacter gergoviae & Klebsiella species; details: individual chemical; tryptic soy broth, 30° C., 24 hours, OD600; MIC = <25% growth vs positive growth control
Text: as §1, §2, §3

OCc1ccccc1 [Benzyl alcohol, reference compound]
MIC Gram negative non-fermenting bacteria [1]: 0.125 wt % | MIC Gram negative fermenting bacteria [2]: 0.5 wt %

C=C(CC(=O)O)C(=O)O [Itaconic acid]
MIC Gram negative non-fermenting bacteria [1]: 0.5 wt % | MIC Gram negative fermenting bacteria [2]: 0.5 wt %

O=C([O-])c1ccccc1.[Na+] [Sodium benzoate]
MIC Gram negative non-fermenting bacteria [1]: 1 wt % | MIC Gram negative fermenting bacteria [2]: 1 wt %
